Measurements taken from publication PMC12867150, “A fungi-derived cyclic peptide enhances Th9-mediated antitumor immunity by targeting ZAP70 and SREBP1” (The Journal of Clinical Investigation, 2025).
Where “and” joins values, the source holds several entries; their conditions need not be identical. Equal values may be shown once.

Tests used:
[1] = system: mitochondria of Th9 cells; experiment: Flow cytometry of mitochondrial membrane potential with TMRM (Figure 4N); format: cell-based, mouse
Protocol: (§1) Mitochondrial mass and membrane potential were assessed using MitoTracker™ Deep Red FM (Thermo Fisher Scientific, catalog M22426) and TMRM (tetramethylrhodamine methyl ester; Macklin, catalog T868125), respectively, following the manufacturers’ protocols. Cells were incubated with the respective dyes, washed, and subjected to flow cytometry or fluorescence microscopy analysis. For ultrastructural assessment, mitochondrial number and diameter were quantified from high-resolution transmission electron microscopy (TEM) images using ImageJ software.

human Th9 CAR T cells = experiment: Intracellular ATP of human Th9 CAR T cells (S9F); format: cell-based; conditions: result in words
Protocol: Intracellular adenosine triphosphate (ATP) levels were measured using a chemiluminescent ATP assay kit (Beyotime, catalog S0026) according to the manufacturer’s protocol. Briefly, cells were lysed and incubated with the luciferase-based detection reagent, and the resulting luminescent signal was detected using an Infinite M200 multimode microplate reader (TECAN). ATP concentrations were calculated based on a standard curve and normalized to cell number or protein content where applicable.
Ct EpA Fat Fat Ct EpA Fat Fat
(A) Flow-cytometric analysis of intracellular IL-9 expression in human Th9 cells […]
(B) Flow-cytometric assessment of mitochondrial mass using Mito Tracker in human Th9 cells treated as in (A) (n = 3).
(C) Flow-cytometric analysis of infection efficiency in Th9 cells transduced with a CD19-directed CAR lentivirus. (D and E) Flow-cytometric analysis of IL-9 expression in human Th9 CAR-T cells on days 5 and 6 of in vitro differentiation, showing representative plots (D) and quantification (E) (n = 3). […]
(G) Flow-cytometric analysis of mitochondrial mass using Mito Tracker in human Th9 CAR-T c e l l s (n = 3). (H and I) Flow-cytometric analysis of granzyme B⁺ CAR-Th9 cells isolated from spleens after adoptive transfer, showing representative plots (H) and quantification (I) (n = 5 mice per group). […]

[2] = system: mitochondria of human Th9 CAR T cells; experiment: MitoTracker of human Th9 CAR T cells (S9G); format: cell-based; conditions: for mitochondrial mass using Mito Tracker in human Th9 CAR-T cells: flow cytometry, Supplemental Figure 9G
Protocol: as §1, with “software. […]” for “software.”
(C) Flow-cytometric analysis of infection efficiency in Th9 cells transduced with a
CD19-directed CAR lentivirus. […]
(G) Flow-cytometric analysis of mitochondrial mass using Mito Tracker in human
Th9 CAR-T c e l l s (n = 3). […]
(H) and quantification (I) (n = 5 mice per group). Statistical analysis was performed
using one-way ANOVA with Tukey’s post hoc test (A and B), or two-tailed unpaired
Student’s t-test (E–G, and I). Repeated data are presented as mean ± SEM. *p < 0.05,
(also on this page, place not known: TP cells ANOV A 30IL-9+ cells (%) Fato Fato Fato Fato A SSC GzmB CtrlEpA MFIofMitoTracker (×102) GF NormalizedATPlevel CtrlEpA 4MFI of Mito Tracker (×105) CtrlEpA0 GzmB+ cells (%) CD4 10 20 IL-9+ cells (%) Day60 10 20 30 Ctrl)

anteiso-C15 Leu7 surfactin [EpA]
TMRM ([1]; Figure 4N, individual replicates, (n = 5)): 178315 and 162266 and 165932 and 168795 and 170537 | mitochondrial membrane potential ([1]; result in words): elevated mitochondrial membrane potential | ATP output, Th9 CAR T (human Th9 CAR T cells): elevated | mitochondrial mass using Mito Tracker in human Th9 CAR-T cells ([2]; replicate 1): 3352 | mitochondrial mass using Mito Tracker in human Th9 CAR-T cells ([2]; replicate 2): 3381 | mitochondrial mass using Mito Tracker in human Th9 CAR-T cells ([2]; replicate 3): 3457 | mitochondrial potential, Th9 CAR T ([2]; result in words): elevated
